According to patent publication US6153419A, “Method for quantitative determination of 1,5-anhydroglucitol” (Kyowa Hakko Kogyo Co., Ltd., priority 1996, dated 2000):
Where two headings read alike, the source gives them in different places.

How the values were obtained:
Assay type in all cases: biochemical
[1] = test system: trehalase derived from Rhodococcus globerulus ATCC 14898; test: Test Example 1: specificity of inhibition by 1,5-anhydroglucitol; conditions: for Inhibition (%): test sugar 1 mM, 100 mM phosphate buffer pH 7.0, 10 mg/ml trehalose, 10 minutes
Method: (§1) A reaction mixture was prepared by adding 10 mU/ml trehalase prepared in Reference Example 3, 0.81 mg/ml 4-aminoantipyrine, 1 mg/ml EMSE, 30 U/ml glucose oxidase, 10 U/ml peroxidase, and 1 mM test sugar shown in Table 4 to 100 mM phosphate buffer (pH 7.0). After addition of 10 mg/ml trehalose to the reaction mixture and stirring, the change in absorbance at 550 nm was measured with a spectrophotometer.

[2] = test system: trehalase derived from Nocardia sp. NK-2067; test: Effect of metal chelating agents, enzyme inhibitors and metal ions on the novel trehalase
Method: The effect of various metal chelating agents, enzyme inhibitors and metal ions on the enzyme was investigated at a concentration of 1 mM.
(§2) To 1 ml of the substrate solution is added 0.02 ml of an enzyme solution, and reaction is carried out at 37° C. for 30 minutes. The reaction is stopped by heating at 100° C. for 3 minutes. To the reaction mixture is added 1 ml of the color-producing reagent, and reaction is carried out at 37° C. for 20 minutes, followed by measurement of the absorbance at 500 nm. A control solution is prepared by using water instead of the enzyme solution in the above procedure.

[3] = test system: trehalase derived from Nocardia sp. NK-2067; test: Inhibition specificity of the novel trehalase to various sugars, trehalose as substrate; conditions: sugar at 1.75 mM
Method: The enzyme was also examined for inhibition specificity to various sugars at 1.75 mM using trehalose as a substrate.
(§3) Trehalose is dissolved in 100 mM phosphate buffer (pH 5.5) to give a concentration of 12.5 mM.
(§4) Glucose oxidase (Toyobo Co., Ltd., Grade II), peroxidase (Toyobo Co., Ltd., Grade III), 4-aminoantipyrine and phenol are dissolved in water to give final concentrations of 0.04 mg/ml, 0.04 mg/ml, 1.2 mM and 21 mM, respectively.
as §2
(§5) The trehalase activity is expressed by unit, one unit being defined as that amount of the enzyme which will hydrolyze 1 μmol of trehalose at 37° C. in one minute. The activity per milliliter of enzyme solution (U/ml) can be calculated from the net difference in absorbance (enzyme solution-control solution) according to the following equation. [formula]

[4] = test system: trehalase derived from Nocardia sp. NK-2067; test: Substrate specificity of the novel trehalase (activity on various substrates); conditions: for Relative activity (%): substrate 1.75 mM, 100 mM phosphate buffer pH 5.5, activity on trehalose defined as 100
Method: The activity of the enzyme on various substrates was measured at a substrate concentration of 1.75 mM in 100 mM phosphate buffer (pH 5.5). The results are shown in Table 1 as relative activities, the activity on trehalose being defined as 100.
The enzyme activity is measured in the following manner.
as §3, §4, §2, §5

[5] = test system: trehalase derived from Nocardia sp. NK-2067; test: Substrate and inhibitor affinity by Lineweaver-Burk plot; conditions: pH 5.5, Lineweaver-Burk plot
Method: The Km value of the enzyme for trehalose at pH 5.5 as determined by Lineweaver-Burk plot [J. Am. Chem. Soc., 56, 658 (1934)] is 6.7 mM.

[6] = test system: trehalase derived from Nocardia sp. NK-2067; test: Example 6: inhibition of trehalase, calibration curve; conditions: pH 7.0, FIG. 9
Method: as §1, with “2,” for “3,”, “a sample containing 1,5-anhydroglucitol at a varied concentration” for “1 mM test sugar shown in Table 4”, “increase” for “change”
The same procedure as in Example 3 was repeated, except that trehalase derived from Nocardia sp. prepared in Example 5 was used.

[7] = test system: trehalase derived from Streptomyces aureofaciens ATCC 10762; test: Example 3: inhibition of trehalase, calibration curve; conditions: pH 7.0, FIG. 7
Method: as §1, with “2,” for “3,”, “a sample containing 1,5-anhydroglucitol at a varied concentration” for “1 mM test sugar shown in Table 4”, “increase” for “change”

[8] = test system: trehalose phosphorylase derived from Catellatospora ferruginea FERM BP-4329; test: Example 1: inhibition of the decomposition activity of trehalose phosphorylase; conditions: pH 7.0, FIG. 5
Method: A reaction mixture was prepared by adding 10 mU/ml trehalose phosphorylase derived from Catellatospora ferruginea prepared in Reference Example 1, 2.5 U/ml […] (Beckman Instruments, Inc.), 5 U/ml glucose-6-phosphate dehydrogenase (Sigma Chemical Co.), 10 mM NADP, and a sample containing 1,5-anhydroglucitol at a varied concentration to 100 mM phosphate buffer (pH 7.0). After addition of 10 mg/ml trehalose to the reaction mixture and stirring, the increase in absorbance at 340 nm was measured with a spectrophotometer.

[9] = test system: trehalase derived from Rhodococcus globerulus ATCC 14898; test: Example 4: inhibition of trehalase, calibration curve; conditions: pH 7.0, FIG. 8
Method: as §1, with “2,” for “3,”, “a sample containing 1,5-anhydroglucitol at a varied concentration” for “1 mM test sugar shown in Table 4”, “increase” for “change”
The same procedure as in Example 3 was repeated, except that trehalase derived from Rhodococcus globerulus prepared in Reference Example 3 was used.

[10] = test system: trehalose phosphorylase derived from Catellatospora ferruginea FERM BP-4329; test: Example 2: inhibition of the synthesis activity of trehalose phosphorylase; conditions: imidazole buffer pH 7.0, FIG. 6
Method: A reaction mixture (3 ml) was prepared by adding 10 mU/ml trehalose phosphorylase prepared in Reference Example 1, 50 mM glucose, 2 ml of a kit for the determination of inorganic phosphorus (Kyowa Medex Co., Ltd.), and a sample containing 1,5-anhydroglucitol at a varied concentration to 50 mM imidazole buffer (pH 7.0). After addition of 50 mM β-glucose-1-phosphate to the reaction mixture and stirring, the increase in absorbance at 550 nm was measured with a spectrophotometer.

With `OC1OC[C@@H](O)[C@H](O)[C@H]1O` (stereo partly drawn) [D-Xylose] the “Inhibition (%)” value [1] was 0%.

`CCN1C(=O)C=CC1=O` [N-Ethylmaleimide] was tested, and the “Inhibition (%)” value ([2]; compound at 1 mM) was 21.9%.

For `CCN(CC)C(=S)S` [Diethyldithiocarbamic acid], the “Inhibition (%)” value ([2]; compound at 1 mM) was 51.0%.

In the case of `NO` [Hydroxylamine], the “Inhibition (%)” value ([2]; compound at 1 mM) is reported as 81.2% and the “Inhibition of the enzyme in words” value ([2]; summary of Table 3) is reported as “inhibited”.

With `O=C(O)CN(CCN(CC(=O)O)CC(=O)O)CC(=O)O` [EDTA, ethylenediaminetetraacetic acid] the “Inhibition (%)” value [2] was 67.6% and the “Inhibition of the enzyme in words” value [2] was “inhibited”.

With `OC[C@H]1OC(O)[C@H](O)[C@@H](O)[C@H]1O` (stereo partly drawn) [D-Galactose] the “Inhibition (%)” value [1] was 0.2%.

For `NC(=O)CI` [Iodoacetamide], the “Inhibition (%)” value ([2]; compound at 1 mM) was 83.6% and the “Inhibition of the enzyme in words” value ([2]; summary of Table 3) was “inhibited”.

For `[N-]=[N+]=[N-]` [Sodium azide], the “Inhibition (%)” value ([2]; compound at 1 mM) was 22.8%.

For `c1cnc2c(c1)ccc1cccnc12` [1,10-Phenanthroline], the “Inhibition (%)” value ([2]; compound at 1 mM) was 88.5% and the “Inhibition of the enzyme in words” value ([2]; summary of Table 3) was “inhibited”.

`[Ba+2].[Cl-].[Cl-]` [BaCl2] was tested, and the “Inhibition (%)” value ([2]; compound at 1 mM) was 40.7%.

With `OC[C@H]1O[C@@](CO)(O[C@H]2O[C@H](CO)[C@@H](O)[C@H](O)[C@H]2O)[C@@H](O)[C@@H]1O` [Sucrose] the “Inhibition (%)” value [3] was 0%, the “Inhibition (%)” value [1] was 0% and the “Relative activity (%)” value [4] was 0%.

For `O=C1CCC(=O)N1Br` [N-Bromosuccinimide], the “Inhibition (%)” value ([2]; compound at 1 mM) was 23.4%.

For `C[C@H]1OC(O)[C@H](O)[C@@H](O)[C@H]1O` (stereo partly drawn) [D-Fucose], the “Inhibition (%)” value [1] was 0%.

With `OC[C@H]1O[C@H](O[C@H]2[C@H](O)[C@@H](O)[C@H](O)O[C@@H]2CO)[C@H](O)[C@@H](O)[C@@H]1O` [Maltose] the “Inhibition (%)” value [3] was 0%, the “Inhibition (%)” value [1] was 0% and the “Relative activity (%)” value [4] was 0%.

In the case of `OC[C@H]1O[C@H](O[C@H]2O[C@H](CO)[C@@H](O)[C@H](O)[C@H]2O)[C@H](O)[C@@H](O)[C@@H]1O` [Trehalose], the Km ([5]; read-out: Km value of the enzyme) is reported as 6.7 mM, the “Substrate specificity in words” value ([4]; conclusion from Table 1) is reported as “specifically acts on” and the “Relative activity (%)” value [4] is reported as 100%.

With `OC[C@H]1OC(O)[C@@H](O)[C@@H](O)[C@@H]1O` (stereo partly drawn) [D-Mannose] the “Inhibition (%)” value [1] was 0.5%.

`OC[C@H]1OC[C@H](O)[C@@H](O)[C@@H]1O` [1,5-Anhydroglucitol] was tested, and the “Inhibition (%)” value [3] was 80.7%, the “Relationship between inhibition rate and concentration” value [6] was “good linear relationship” and the “Relationship between inhibition rate and concentration” value [7] was “good linear relationship”. The “Relationship between inhibition rate and concentration” value [8] was “good linear relationship”, the “Specificity of inhibition in words” value ([1]; conclusion from Table 4) was “inhibited specifically” and the “Inhibition (%)” value [1] was 45.0%. For the same molecule, the Ki ([5]; read-out: Ki value of the enzyme) was 330 µM, the “Relationship between inhibition rate and concentration” value [9] was “good linear relationship” and the “Relationship between inhibition rate and concentration” value [10] was “good linear relationship”.

With `C[C@@H]1OC(O)[C@@H](O)[C@H](O)[C@@H]1O` (stereo partly drawn) [L-Fucose] the “Inhibition (%)” value [1] was 0%.

For `OC[C@H]1O[C@@H](O[C@H]2[C@H](O)[C@@H](O)C(O)O[C@@H]2CO)[C@H](O)[C@@H](O)[C@H]1O` (stereo partly drawn) [Lactose], the “Inhibition (%)” value [3] was 0% and the “Relative activity (%)” value [4] was 0%.

With `c1ccc(-c2ccccn2)nc1` [2,2'-Bipyridyl] the “Inhibition (%)” value ([2]; compound at 1 mM) was 60.0% and the “Inhibition of the enzyme in words” value ([2]; summary of Table 3) was “inhibited”.

`[Cl-].[Cl-].[Co+2]` [CoCl2] was tested, and the “Inhibition (%)” value ([2]; compound at 1 mM) was 20.4%.

For `O=C(O)c1cc[c]([Hg][OH])cc1` [p-Mercuribenzoic acid], the “Inhibition (%)” value ([2]; compound at 1 mM) was 94.7% and the “Inhibition of the enzyme in words” value ([2]; summary of Table 3) was “inhibited”.

For `OC[C@H]1O[C@H](O[C@H]2C(O)O[C@H](CO)[C@@H](O)[C@@H]2O)[C@H](O)[C@@H](O)[C@@H]1O` (stereo partly drawn) [Kojibiose], the “Inhibition (%)” value [3] was 0% and the “Relative activity (%)” value [4] was 0%.

`N[C@H]1[C@@H](O[C@H]2O[C@H](CO)[C@@H](O)[C@H](O)[C@H]2O)O[C@H](CO)[C@@H](O)[C@@H]1O` [Trehalosamine] was tested, and the “Relative activity (%)” value [4] was 0.5%.

In the case of `O=S(=O)([O-])[O-].[Ni+2]` [NiSO4, nickel sulfate], the “Inhibition (%)” value [2] is reported as 62.1% and the “Inhibition of the enzyme in words” value [2] is reported as “inhibited”.

With `O=C(CO)[C@@H](O)[C@H](O)[C@H](O)CO` [D-Fructose] the “Inhibition (%)” value [1] was 0%.

In the case of `OC[C@H]1O[C@H](O[C@H]2[C@H](O)[C@@H](CO)OC(O)[C@@H]2O)[C@H](O)[C@@H](O)[C@@H]1O` (stereo partly drawn) [Nigerose], the “Inhibition (%)” value [3] is reported as 0% and the “Relative activity (%)” value [4] is reported as 0%.

With `CC(=O)N[C@H]1C(O)O[C@H](CO)[C@@H](O)[C@@H]1O` (stereo partly drawn) [N-Acetyl-D-glucosamine] the “Inhibition (%)” value [1] was 0%.

`O=S(=O)([O-])[O-].[Zn+2]` [ZnSO4] was tested, and the “Inhibition (%)” value ([2]; compound at 1 mM) was 53.4%.

With `N[C@H]1C(O)O[C@H](CO)[C@@H](O)[C@@H]1O` (stereo partly drawn) [D-Glucosamine] the “Inhibition (%)” value [1] was 0%.
